We go through 18 molecules from paper PMC9341091, “Design, synthesis, and molecular docking studies of diphenylquinoxaline-6-carbohydrazide hybrids as potent α-glucosidase inhibitors” (BMC Chemistry, 2022).

Converted amounts (≈) assume the structure as drawn. Like-named read-outs stand apart in the source and are kept apart here.

In data set [1] the target is α-glucosidase from Saccharomyces cerevisiae (Saccharomyces cerevisiae, UniProt P53341). In words: biochemical. How it is done: The α-glucosidase inhibitory effects of diphenylquinoxaline-6-carbohydrazide hybrids 7a–o were determined by previously reported method. […] Later on, 25 μL of the substrate (p-nitrophenyl glucopyranoside, 4 mM) was added to each well of the plate, and incubation was continued for 20 min at 37 ^◦C.
Chain of α-glucosidase from Saccharomyces cerevisiae (P53341 whole entry): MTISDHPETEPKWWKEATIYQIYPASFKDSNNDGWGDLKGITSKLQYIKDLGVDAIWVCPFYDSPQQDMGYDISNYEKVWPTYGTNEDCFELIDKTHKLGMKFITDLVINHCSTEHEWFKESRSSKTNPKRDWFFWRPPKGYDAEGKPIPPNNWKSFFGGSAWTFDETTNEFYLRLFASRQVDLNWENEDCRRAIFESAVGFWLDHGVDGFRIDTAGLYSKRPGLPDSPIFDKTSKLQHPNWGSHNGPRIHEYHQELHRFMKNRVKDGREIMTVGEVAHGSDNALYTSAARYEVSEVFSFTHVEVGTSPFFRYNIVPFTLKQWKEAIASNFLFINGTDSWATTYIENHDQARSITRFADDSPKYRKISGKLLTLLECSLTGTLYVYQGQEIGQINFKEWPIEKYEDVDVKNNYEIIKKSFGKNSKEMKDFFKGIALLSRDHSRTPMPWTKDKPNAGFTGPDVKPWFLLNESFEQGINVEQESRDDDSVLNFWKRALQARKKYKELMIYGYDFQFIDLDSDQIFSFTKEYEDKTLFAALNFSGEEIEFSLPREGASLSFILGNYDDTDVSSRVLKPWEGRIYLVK

Data set [2] concerns the target α-glucosidase (Saccharomyces cerevisiae, UniProt P53341). Put plainly: Enzyme kinetic studies (Lineweaver–Burk plot, secondary plot). The format is biochemical. As for the experimental part:
A Lineweaver–Burk plot was generated to identify the type of inhibition and the Michaelis–Menten constant (Km) value was determined from the plot between reciprocal of the substrate concentration (1/[S]) and reciprocal of enzyme rate (1/V) over various inhibitor concentrations. The experimental inhibitor constant (Ki) value was constructed by secondary plots of the inhibitor concentration [I] versus Km.

Data set [3] concerns the target α-glucosidase. More on the design: method as in doi:10.1039/C9NJ02580D. The following applies: compound A versus standard acarbose; cited from earlier work.
Data set [4] concerns the target α-glucosidase. More on the design: method as in PMID 24398385. The following applies: cited from earlier work.

Chain of α-glucosidase (Saccharomyces cerevisiae, UniProt P53341) (P53341 whole entry): as above

The molecule `O=C(NN=Cc1ccccc1)c1ccc2nc(-c3ccccc3)c(-c3ccccc3)nc2c1` [7a, N'-benzylidene-2,3-diphenylquinoxaline-6-carbohydrazide] returned a melting point of 230 to 232 °C. The molecule further gave an IC50 in data set [1] of 155 ± 3 µM.

Molecule `O=C(NN=Cc1ccccc1[N+](=O)[O-])c1ccc2nc(-c3ccccc3)c(-c3ccccc3)nc2c1` [7b, N'-(2-nitrobenzylidene)-2,3-diphenylquinoxaline-6-carbohydrazide] had a melting point above 250 °C. Further, the half-inhibitory concentration (IC50) in data set [1] stood at 175 ± 5.9 µM.

As to `O=C(NN=Cc1cccc([N+](=O)[O-])c1)c1ccc2nc(-c3ccccc3)c(-c3ccccc3)nc2c1` [7c, N'-(3-nitrobenzylidene)-2,3-diphenylquinoxaline-6-carbohydrazide], the melting point was above 250 °C. Besides, the IC50 in data set [1] was 279 ± 5.8 µM.

Molecule `O=C(NN=Cc1ccc([N+](=O)[O-])cc1)c1ccc2nc(-c3ccccc3)c(-c3ccccc3)nc2c1` [7d, N'-(4-nitrobenzylidene)-2,3-diphenylquinoxaline-6-carbohydrazide] came in with a melting point above 250 °C. This molecule had an IC50 in data set [1] of 240 ± 7.5 µM.

Take `O=C(NN=Cc1cccc(F)c1)c1ccc2nc(-c3ccccc3)c(-c3ccccc3)nc2c1` [7e, N'-(3-fluorobenzylidene)-2,3-diphenylquinoxaline-6-carbohydrazide]: the melting point was above 250 °C. Besides, the type of inhibition result at α-glucosidase [2] (Lineweaver–Burk plot, Km increased, Vmax unchanged) is recorded as “competitive”. Further, the Ki on α-glucosidase [2] (secondary plot of Km versus inhibitor concentration (0, 30, 70 and 110 µM), read-out: inhibition constant Ki) amounted to 107 µM. In addition, the IC50 in data set [1] (in vitro α-glucosidase inhibition, substrate p-nitrophenyl glucopyranoside, mean ± SEM, at least three experiments, read-out: IC50) came out at 111 ± 6 µM.

The molecule `O=C(NN=Cc1ccc(Cl)cc1)c1ccc2nc(-c3ccccc3)c(-c3ccccc3)nc2c1` [7f, N'-(4-chlorobenzylidene)-2,3-diphenylquinoxaline-6-carbohydrazide] registered a melting point of 234 to 238 °C. In addition, half-maximal inhibition in data set [1] (IC50) required 260 ± 4.5 µM.

With `COc1ccc(C=NNC(=O)c2ccc3nc(-c4ccccc4)c(-c4ccccc4)nc3c2)cc1` [7g, N'-(4-methoxybenzylidene)-2,3-diphenylquinoxaline-6-carbohydrazide], the melting point was above 250 °C. The molecule further showed an IC50 in data set [1] of 320 ± 4.9 µM.

For the molecule `COc1cccc(C=NNC(=O)c2ccc3nc(-c4ccccc4)c(-c4ccccc4)nc3c2)c1[N+](=O)[O-]` [7h, N'-(3-methoxy-2-nitrobenzylidene)-2,3-diphenylquinoxaline-6-carbohydrazide], the melting point is above 250 °C. The molecule also showed a half-maximal inhibitory concentration (IC50) in data set [1] of 305 ± 7.2 µM.

In turn, `O=C(NN=Cc1cc([N+](=O)[O-])ccc1Cl)c1ccc2nc(-c3ccccc3)c(-c3ccccc3)nc2c1` [7i, N'-(2-chloro-5-nitrobenzylidene)-2,3-diphenylquinoxaline-6-carbohydrazide] showed a melting point above 250 °C. The molecule further had an IC50 in data set [1] of 231 ± 5.5 µM.

Turning to `COc1cc(C=NNC(=O)c2ccc3nc(-c4ccccc4)c(-c4ccccc4)nc3c2)ccc1O` [7j, N'-(4-hydroxy-3-methoxybenzylidene)-2,3-diphenylquinoxaline-6-carbohydrazide], the melting point was above 250 °C. This molecule also gave an IC50 in data set [1] of 358 ± 6.1 µM.

`COc1cc(/C=N/NC(=O)c2ccc3nc(-c4ccccc4)c(-c4ccccc4)nc3c2)cc(OC)c1OC` [7k, (E)-2,3-diphenyl-N'-(3,4,5-trimethoxybenzylidene)quinoxaline-6-carbohydrazide]: the IC50 in data set [1] was above 750 µM.

In turn, `O=C(NN=Cc1cccc(Oc2ccccc2)c1)c1ccc2nc(-c3ccccc3)c(-c3ccccc3)nc2c1` [7l, N'-(3-phenoxybenzylidene)-2,3-diphenylquinoxaline-6-carbohydrazide] registered a melting point above 250 °C. Moreover, in data set [1], the midpoint of inhibition, the IC50, lay at 453 ± 4.7 µM.

The molecule `O=C(NN=Cc1cc2c(cc1[N+](=O)[O-])OCO2)c1ccc2nc(-c3ccccc3)c(-c3ccccc3)nc2c1` [7m, N'-((6-nitrobenzo[d][1,3]dioxol-5-yl)methylene)-2,3-diphenylquinoxaline-6-carbohydrazide] had a melting point above 250 °C. The molecule further returned an IC50 in data set [1] of 353.7 ± 3.5 µM.

For `O=C(NN=Cc1cccc2ccccc12)c1ccc2nc(-c3ccccc3)c(-c3ccccc3)nc2c1` [7n, N'-(naphthalen-1-ylmethylene)-2,3-diphenylquinoxaline-6-carbohydrazide], the melting point is above 250 °C. In data set [1], this molecule gave an IC50 of 388 ± 6.5 µM.

`O=C(NN=Cc1cccs1)c1ccc2nc(-c3ccccc3)c(-c3ccccc3)nc2c1` [7o, 2,3-diphenyl-N'-(thiophen-2-ylmethylene)quinoxaline-6-carbohydrazide] displayed a melting point of 242 to 246 °C. In data set [1], this molecule came in with an IC50 of 145 ± 5 µM.

Regarding `Cc1nc2ccccc2n(CC(=O)N/N=C/c2ccc(OCCc3cn(CN4CCOCC4)nn3)cc2)c1=O` [compound A], the IC50 at α-glucosidase [3] is 21.92 µg/mL (≈ 41.3 µM).

On to `O=C(N/N=C1/c2ccccc2-c2nc3ccccc3nc21)c1ccc(Br)cc1` [compound B], for which the IC50 on α-glucosidase [4] (compound B versus standard acarbose) was 22.67 ± 0.1 µM.

For the molecule `Cc1ccc(NC(=O)Cn2c(=O)c(C)nc3ccccc32)c([N+](=O)[O-])c1` [compound C], the IC50 at α-glucosidase [4] (compound C versus standard acarbose) was 83.8 ± 0.89 µM.
